The nature of data set [1]: Bioactive material loading capacity of porous silica particles. The class given is physicochemical. As to conditions: particles of Example 2-(3)-4)-(i), distilled water, 1 hour. How it is done:
After loading the negatively charged porous silica particles of Example 2-(3)-4)-(i) with doxorubicin, the absorbance of the supernatant was measured to determine an amount of loaded doxorubicin, and a loading rate (“loading capacity”) of the particles was calculated.
Specifically, 5 mg of porous silica particle powders and 2 mg of doxorubicin were mixed in 1 ml of distilled water, and then settled at room temperature for 1 hour. Subsequently, the solution was centrifuged at 8000 rpm for 10 minutes to settle the particles, and absorbance (λab=480 nm) of the supernatant was measured to determine an amount of the low molecular weight compound remaining in the supernatant without loading. Further, an amount of the loaded low molecular weight compound was calculated (an amount of the loaded low molecular weight compound=an amount of initially added low molecular weight compound−an amount of the low molecular weight compound remaining in the supernatant) so as to determine the loading capacity (loading capacity=bioactive material/porous silica particles, w/w %)
After loading the negatively charged porous silica particles in Example 2-(3)-4)-(i) with irinotecan, absorbance of the supernatant was measured and an amount of loaded irinotecan was calculated, and the loading capacity thereof was determined. […]

The nature of data set [2]: Release of bioactive materials from loaded porous silica particles. The class given is physicochemical. As to conditions: doxorubicin loaded on porous silica particles, SBF (pH 7.4), 37° C. The procedure:
5 mg of porous silica particles loaded with doxorubicin ([…]) was dispersed in SBF (pH 7.4) (total volume: 1 ml), and then the solution was placed in a 1.5 ml tube and maintained in a dynamic condition of performing horizontal agitation at 20 rpm and 37° C. At each time point, the porous silica solution loaded with doxorubicin was settled using a centrifuge, and the absorbance (λa,b=480 nm) of the supernatant was measured to determine an amount of released doxorubicin.
10 mg of porous silica particles loaded with doxorubicin (2 mg) were dispersed in SBF (pH 7.4) inside a dialysis membrane (total volume: 0.5 ml), and then the dialysis membrane was placed in a 1.5 ml SBF tube (pH 7.4) and maintained in static conditions at 37° C. At each time point, the porous silica solution loaded with doxorubicin was settled using a centrifuge, and the absorbance (λab=480 nm) of the supernatant was measured to determine an amount of released doxorubicin.
The solution was maintained in a dynamic condition of performing horizontal agitation at 200 rpm and 37° C.
[…] of porous silica particles loaded with sorafenib (0.1 Mg) were dispersed in 10 ml of 1×PBS. The solution was maintained under a dynamic condition of performing horizontal agitation at 200 rpm and 37° C. At each time point, the porous silica solution loaded with sorafenib was settled using a centrifuge, and the absorbance (λab=270 nm) of the supernatant was measured to determine an amount of released sorafenib.
0.1 mg of particles loaded with retinoic acid were placed in a PBS (pH 7.4) solution containing 5% ethanol and maintained at 37° C. while performing horizontal agitation.
5 mg of particles loaded with p53 peptide were placed in 5 ml of 1×PBS containing 10% FBS or 5 ml of 1×PBS, and maintained under a dynamic environment while rotating at 20 rpm and 37° C. At each time point, centrifugation was conducted at 8500 rpm and a fluorescence intensity of 5(6)-carboxyfluorescein (FAM), which is a fluorescent label bound to p53 peptide from the supernatant ([…]: 480 nm, Emission: 520 nm).
10 μl of porous silica particles loaded with Cy5-siRNA was resuspended in SBF (pH 7.4, 37° C.) (total volume: 0.5 ml) and placed in a 1.5 ml tube. Release of siRNA was performed while horizontally agitating at 60 rpm and 37° C. At each time point, the siRNA-loaded porous silica solution was settled using a centrifuge, and a fluorescence intensity of the supernatant was measured.
20 μg of porous silica particles loaded with siRNA (1 μg) of the above 1) was dispersed in SBF (pH 7.4) inside a dialysis membrane (total volume: 0.5 ml), and the dialysis membrane was placed in a 1.5 ml SBF (pH 7.4) tube, and static conditions at 37° C. were maintained. At each time point, the siRNA-loaded porous silica solution was settled using a centrifuge, and the absorbance (λab=480 nm) of the supernatant was measured to determine an amount of released siRNA.
20 μg of porous silica particles loaded with pDNA (1 μg) were dispersed in SBF (pH 7.4) inside a dialysis membrane (total volume 0.5 ml), and the dialysis membrane was placed in a 1.5 ml SBF (pH 7.4) tube while shaking at 60 rpm and 37° C. At each time point, the porous silica solution loaded with pDNA was settled using a centrifuge and the absorbance (λab=480 nm) of the supernatant was measured to determine an amount of released pDNA.
Porous silica particles loaded with linear DNA (3 μg of linear DNA, 100 μg of porous silica particles) were resuspended in PBS (pH 7.4, 37° C.), and a dialysis membrane having a pore diameter of 20 kDa (the same tube as the tube in FIG. 18). After placing the suspension in the membrane, a dialysis tube was soaked in 1.5 ml of PBS.

Data set [3] concerns HepG2 cells. Description: Delivery through intravenous injection, HepG2 Xeno. The class given is in vivo, Balb/C nude mouse. As to conditions: loaded on particles of Example 2-(3)-4)-(i), tail vein, 4 mg/kg. How it is done:
Xeno was prepared in Balb/C nude mouse using HepG2 cells as a human liver cancer cell line. […] An injecting dose of doxorubicin was 4 mg/kg (mouse weight), and 80 μg of doxorubicin and 160 μg of particles were used based on an average body weight of 20 g of 5 to 8-week old Balb/C nude mouse.

Setting [4] is: static condition, dialysis membrane.

Structures are written as SMILES.

Take `COc1cccc2c1C(=O)c1c(O)c3c(c(O)c1C2=O)C[C@@](O)(C(=O)CO)C[C@@H]3O[C@H]1C[C@H](N)[C@H](O)[C@H](C)O1` [doxorubicin]: in data set [1], the “loading of doxorubicin on the particles (colour of solution after centrifugation)” value is “mostly loaded on the particles”. In data set [2] (dynamic condition, 20 rpm), the “time to reach a release rate of 50%” value is recorded as “about 1.5 hours” and the “time up to which continuously released” value is not below 12 h. For the same compound, in data set [2] (setting [4]), the “time to reach a release rate of 50%” value is recorded as “about 6 days” and the “time up to which continuously released” value is not below 480 h. In addition, in data set [3], the “tumor growth inhibition compared to injection of the material alone” value is on record as “excellent”.

For the origin of these results see patent publication US20200163885A1, “COMPOSITION FOR DELIVERING PHYSIOLOGICALLY ACTIVE INGREDIENTS INTO BLOOD VESSEL” (LEMONEX INC., priority 2017, published 2020).
